From patent US20230272029A1, “CO-AGONISTS AT GLP-1 AND GIP RECEPTORS SUITABLE FOR ORAL DELIVERY” (Novo Nordisk A/S, priority 2020, published 2023)
Marks after values point to notes of the source that are not given here. Starred links: 1 amine or outer side, 2 acyl side, 3 side chain; linkers in the order of their positions; H or OH if unused. Non-standard residues stand in square brackets, D forms with d. Residues, ends and D or L forms follow the SMILES beside them. Groups on a side chain read outwards from the residue. *: point of attachment. C18 diacid = O=C(O)CCCCCCCCCCCCCCCCC(=O)*; γGlu = O=C(O)[C@H](CCC(=O)[*:2])N[*:1]; εLys = N[C@@H](CCCCN[*:1])C(=O)[*:2]; Aib = CC(C)(N)C(=O)O

Test: Pharmacokinetic study in dogs after oral dosing of tablets with SNAC
Format: in vivo, Beagle dogs
Procedure: The purpose of this example is to determine the half-life and plasma exposure in vivo of the compounds of the present invention after p.o. administration to beagle dogs, i.e. the terminal half-life and concentration of test substance that reaches circulation with time. This is done in a pharmacokinetic (PK) study, where these parameters of the compound in question are determined. By terminal half-life is generally meant the period of time it takes to halve a certain plasma concentration, measured after the initial distribution phase.
The amount of SNAC in the tablet composition was 100-300 mg, the amount of magnesium stearate in the tablet composition was 7.7 mg, and the target amount of each test substance in the tablet composition was 3-4 mg.
Male beagle dogs, 1-7 years of age and weighing 9-17 kg during the study period, were included in the study. The dogs were dosed in a fasting state. The dogs were group housed in pens (12 hours light: 12 hours dark), and fed individually and restrictedly once daily with Royal Canin Medium Adult dog food (Royal Canin Products, China Branch, or Brogaarden A/S, Denmark). The dogs were used for repeated PK studies with a suitable wash-out period between successive dosing. An appropriate acclimatization period was given prior to initiation of the first PK study. All handling, dosing, and blood sampling of the animals were performed by trained and skilled staff. Before the studies, the dogs were fasted overnight and from 0 to 4 hours after dosing. The dogs were restricted to water 1 hour before dosing until 4 hours after dosing, but otherwise had ad libitum access to water during the whole period.
The compositions were administered by a single oral dosing to the dogs in groups of 6-8 dogs. […] The mouth was then closed, and 10 mL of tap water was given by syringe or gavage to facilitate swallowing of the tablet.
For each blood sample time point, approximately 0.8 mL of whole blood was collected in a 1.5 mL EDTA-coated tube, which was gently turned to mix the sample with EDTA. Blood samples were collected in EDTA buffer (8 mM) and then centrifuged at 4° C. and 2000g for 10 minutes. Plasma was pipetted into Micronic tubes on dry ice, and kept at −20° C. or lower until analysis. Blood samples were taken as appropriate, for example from a venflon in the cephalic vein in the front leg for the first 2 hours and then with syringe from the jugular vein for the rest of the time points. The first few drops were allowed to drain from the venflon to avoid heparin saline from the venflon in the sample.
All blood samples were collected into test tubes containing EDTA for stabilisation and kept on ice until centrifugation. Plasma was separated from whole blood by centrifugation and the plasma was stored at −20° C. or lower until analysis.
The plasma was analysed for test substance using LC-MS (Liquid Chromatography-Mass Spectrometry) as known to the person skilled in the art. […] RP-HPLC separation was achieved using a linear gradient of 1:1 acetonitrile/methanol in 1% aqueous formic acid using either: a Phenomenex Onyx Monolithic C18 column (50×2.0 mm) and a flow rate of 0.8 mL/min at 30° C.; or an Agilent Poroshell 120 SB-C18 column (50×2.1 mm, 2.7 μm) at a flow rate of 0.4 mL/min at 60° C. The mass spectrometer was operated in either positive ionization SIM mode or positive ionization PRM mode.
For each individual animal, a plasma concentration-time profile was analysed by a non-compartmental model in Pharsight Phoenix WinNonLin ver. 6.4 software or other relevant software for PK analysis, and the resulting terminal half-life (t1/2), maximum plasma concentration per dose (Cmax/D), time for maximum plasma concentration (tmax), and area under the curve to infinity per dose (AUC/D) were determined. Summary statistics of pharmacokinetic results were presented as median (for tmax), harmonic mean ([…]), or arithmetic mean (Cmax, AUC).

| SMILES | Cmax/Dose (oral tablet, 300 mg SNAC, 3 mg test substance, Beagle dogs, arithmetic mean) | Cmax/Dose (oral tablet, 100 mg SNAC, 3 mg test substance, Beagle dogs, arithmetic mean) [kg/L] | Cmax/Dose (dog, in vivo, po) [kg/L] | AUC/Dose (dog, in vivo, po) [kg·h/L] |
| --- | --- | --- | --- | --- |
| CC[C@H](C)[C@H](NC(=O)[C@H](Cc1ccccc1)NC(=O)[C@H](CCC(=O)O)NC(=O)[C@H](CCCNC(=N)N)NC(=O)[C@H](C)NC(=O)[C@H](C)NC(=O)[C@H](CCC(N)=O)NC(=O)[C@H](CCCCNC(=O)[C@@H](N)CCCCNC(=O)[C@@H](N)CCCCNC(=O)CC[C@H](NC(=O)CCCCCCCCCCCCCCCCC(=O)O)C(=O)O)NC(=O)[C@H](CCC(=O)O)NC(=O)[C@H](CC(C)C)NC(=O)[C@H](CC(C)C)NC(=O)[C@@H](NC(=O)[C@H](CO)NC(=O)[C@H](Cc1ccc(O)cc1)NC(=O)[C@H](CC(=O)O)NC(=O)[C@H](CO)NC(=O)[C@@H](NC(=O)[C@H](Cc1ccccc1)NC(=O)[C@@H](NC(=O)CNC(=O)[C@H](CCC(=O)O)NC(=O)C(C)(C)NC(=O)[C@@H](N)Cc1ccc(O)cc1)[C@@H](C)O)[C@@H](C)O)[C@@H](C)CC)C(=O)N[C@@H](CCC(=O)O)C(=O)N[C@@H](Cc1c[nH]c2ccccc12)C(=O)N[C@@H](CC(C)C)C(=O)N[C@@H](CC(C)C)C(=O)N[C@@H](CCCNC(=N)N)C(=O)NCC(=O)NCC(=O)N1CCC[C@H]1C(=O)N[C@@H](CCC(=O)O)C(=O)N[C@@H](CO)C(=O)NCC(=O)N[C@@H](C)C(=O)N1CCC[C@H]1C(=O)N1CCC[C@H]1C(=O)N1CCC[C@H]1C(=O)N[C@@H](CO)C(=O)O [Compound No. 28] (H-Y[Aib]EGTFTSDYSILLEK([εLys-εLys-γGlu-C18 diacid])QAAREFIEWLLRGGPESGAPPPS-OH) | 0.36** kg/L | – | – | – |
| CC[C@H](C)[C@H](NC(=O)[C@H](Cc1ccccc1)NC(=O)[C@H](CCC(=O)O)NC(=O)[C@H](CCCNC(=N)N)NC(=O)[C@H](C)NC(=O)[C@H](C)NC(=O)[C@H](CCC(N)=O)NC(=O)[C@H](CCCCNC(=O)[C@@H](N)CCCCNC(=O)[C@@H](N)CCCCNC(=O)CC[C@H](NC(=O)CCCCCCCCCCCCCCCCC(=O)O)C(=O)O)NC(=O)[C@H](CCC(=O)O)NC(=O)[C@H](CC(C)C)NC(=O)[C@H](Cc1ccc(O)cc1)NC(=O)[C@@H](NC(=O)[C@H](CO)NC(=O)[C@H](Cc1ccc(O)cc1)NC(=O)[C@H](CC(=O)O)NC(=O)[C@H](CO)NC(=O)[C@@H](NC(=O)[C@H](Cc1ccccc1)NC(=O)[C@@H](NC(=O)CNC(=O)[C@H](CCC(=O)O)NC(=O)C(C)(C)NC(=O)[C@@H](N)Cc1ccc(O)cc1)[C@@H](C)O)[C@@H](C)O)[C@@H](C)CC)C(=O)N[C@@H](CCC(=O)O)C(=O)N[C@@H](Cc1c[nH]c2ccccc12)C(=O)N[C@@H](CC(C)C)C(=O)N[C@@H](CC(C)C)C(=O)N[C@@H](CCCNC(=N)N)C(=O)NCC(=O)NCC(=O)N1CCC[C@H]1C(=O)N[C@@H](CCC(=O)O)C(=O)N[C@@H](CO)C(=O)NCC(=O)N[C@@H](C)C(=O)N1CCC[C@H]1C(=O)N1CCC[C@H]1C(=O)N1CCC[C@H]1C(=O)N[C@@H](CO)C(=O)O [Compound No. 13] (H-Y[Aib]EGTFTSDYSIYLEK([εLys-εLys-γGlu-C18 diacid])QAAREFIEWLLRGGPESGAPPPS-OH) | – | 0.29 | – | – |
| CC[C@H](C)[C@H](NC(=O)[C@H](Cc1ccccc1)NC(=O)[C@H](CCC(=O)O)NC(=O)[C@H](CCCNC(=N)N)NC(=O)[C@H](C)NC(=O)[C@H](C)NC(=O)[C@H](CCC(N)=O)NC(=O)[C@H](CCCCNC(=O)[C@@H](N)CCCCNC(=O)[C@@H](N)CCCCNC(=O)CC[C@H](NC(=O)CCCCCCCCCCCCCCCCC(=O)O)C(=O)O)NC(=O)[C@H](CCC(=O)O)NC(=O)[C@H](CC(C)C)NC(=O)[C@H](CC(C)C)NC(=O)[C@@H](NC(=O)[C@H](CO)NC(=O)[C@H](Cc1ccc(O)cc1)NC(=O)[C@H](CC(=O)O)NC(=O)[C@H](CO)NC(=O)[C@@H](NC(=O)[C@H](Cc1ccccc1)NC(=O)[C@@H](NC(=O)CNC(=O)[C@H](CCC(=O)O)NC(=O)C(C)(C)NC(=O)[C@@H](N)Cc1ccc(O)cc1)[C@@H](C)O)[C@@H](C)O)[C@@H](C)CC)C(=O)N[C@@H](CC(N)=O)C(=O)N[C@@H](Cc1c[nH]c2ccccc12)C(=O)N[C@@H](CC(C)C)C(=O)N[C@@H](CC(C)C)C(=O)N[C@@H](C)C(=O)NCC(=O)NCC(=O)N1CCC[C@H]1C(=O)N[C@@H](CO)C(=O)N[C@@H](CO)C(=O)O [Compound No. 20] (H-Y[Aib]EGTFTSDYSILLEK([εLys-εLys-γGlu-C18 diacid])QAAREFINWLLAGGPSS-OH) | – | – | 0.21 | – |
| CC[C@H](C)[C@H](NC(=O)[C@H](Cc1ccccc1)NC(=O)[C@H](CCC(=O)O)NC(=O)[C@H](Cc1c[nH]cn1)NC(=O)[C@H](C)NC(=O)[C@H](C)NC(=O)[C@H](CCC(N)=O)NC(=O)[C@H](CCCCNC(=O)[C@@H](N)CCCCNC(=O)[C@@H](N)CCCCNC(=O)CC[C@H](NC(=O)CCCCCCCCCCCCCCCCC(=O)O)C(=O)O)NC(=O)[C@H](CCC(=O)O)NC(=O)[C@H](CC(C)C)NC(=O)[C@H](CC(C)C)NC(=O)[C@@H](NC(=O)[C@H](CO)NC(=O)[C@H](Cc1ccc(O)cc1)NC(=O)[C@H](CC(=O)O)NC(=O)[C@H](CO)NC(=O)[C@@H](NC(=O)[C@H](Cc1ccccc1)NC(=O)[C@@H](NC(=O)CNC(=O)[C@H](CCC(=O)O)NC(=O)C(C)(C)NC(=O)[C@@H](N)Cc1ccc(O)cc1)[C@@H](C)O)[C@@H](C)O)[C@@H](C)CC)C(=O)N[C@@H](CCC(=O)O)C(=O)N[C@@H](Cc1c[nH]c2ccccc12)C(=O)N[C@@H](CC(C)C)C(=O)N[C@@H](CC(C)C)C(=O)N[C@@H](C)C(=O)NCC(=O)NCC(=O)N1CCC[C@H]1C(=O)N[C@@H](CO)C(=O)N[C@@H](CO)C(=O)NCC(=O)N[C@@H](C)C(=O)N1CCC[C@H]1C(=O)N1CCC[C@H]1C(=O)N1CCC[C@H]1C(=O)N[C@@H](CO)C(=O)O [Compound No. 30] (H-Y[Aib]EGTFTSDYSILLEK([εLys-εLys-γGlu-C18 diacid])QAAHEFIEWLLAGGPSSGAPPPS-OH) | – | – | 0.24 | 6.5 |
| CC[C@H](C)[C@H](NC(=O)[C@H](Cc1ccccc1)NC(=O)[C@H](CCC(=O)O)NC(=O)[C@H](CCCNC(=N)N)NC(=O)[C@H](C)NC(=O)[C@H](C)NC(=O)[C@H](CCC(N)=O)NC(=O)[C@H](CCCCNC(=O)[C@@H](N)CCCCNC(=O)[C@@H](N)CCCCNC(=O)CC[C@H](NC(=O)CCCCCCCCCCCCCCCCC(=O)O)C(=O)O)NC(=O)[C@H](CCC(=O)O)NC(=O)[C@H](CC(C)C)NC(=O)[C@H](Cc1ccc(O)cc1)NC(=O)[C@@H](NC(=O)[C@H](CO)NC(=O)[C@H](Cc1ccc(O)cc1)NC(=O)[C@H](CC(=O)O)NC(=O)[C@H](CO)NC(=O)[C@@H](NC(=O)[C@H](Cc1ccccc1)NC(=O)[C@@H](NC(=O)CNC(=O)[C@H](CCC(=O)O)NC(=O)C(C)(C)NC(=O)[C@@H](N)Cc1ccc(O)cc1)[C@@H](C)O)[C@@H](C)O)[C@@H](C)CC)C(=O)N[C@@H](CC(N)=O)C(=O)N[C@@H](Cc1c[nH]c2ccccc12)C(=O)N[C@@H](CC(C)C)C(=O)N[C@@H](CC(C)C)C(=O)N[C@@H](C)C(=O)NCC(=O)NCC(=O)N1CCC[C@H]1C(=O)N[C@@H](CO)C(=O)N[C@@H](CO)C(=O)NCC(=O)N[C@@H](C)C(=O)N1CCC[C@H]1C(=O)N1CCC[C@H]1C(=O)N1CCC[C@H]1C(=O)N[C@@H](CO)C(=O)O [Compound No. 11] (H-Y[Aib]EGTFTSDYSIYLEK([εLys-εLys-γGlu-C18 diacid])QAAREFINWLLAGGPSSGAPPPS-OH) | – | – | 0.19 | 7.1 |
